{"source": "patent US20060008466A1", "about": "“Methods for treating and preventing microbial infections” (University of Saskatchewan, priority 2004, published 2006)", "key": {"B. bronchiseptica [1]": {"tested_on": "B. bronchiseptica", "experiment": "In vitro bactericidal activity against B. bronchiseptica, plate counts", "format": "cell-based", "description": "(§1) E. coli, Actinobacillus pleuropneumoniae and B. bronchiseptica were grown on agar plates using routine procedures. The bacteria were washed off the plates, washed in saline and subsequently resuspended in media. They were co-incubated with pBD-1 in varying doses and incubated for various time periods (6-48 hours). The bacteria were quantified by plating the suspension onto agar plates.\n(§2) Bactericidal activity of bronchoalveolar lavage (BAL) fluid obtained from non-infected piglets was analyzed against B. pertussis in vitro. Non-infected piglets, either 4-5 weeks old or newborn piglets (6 hours old, colostrum-deprived or colostrum-fed), were euthanized and BALs were collected in Stainer-Scholte (SS) medium. The BAL fluid was obtained by filling the lungs with 10 ml of SS medium and withdrawing as much fluid as possible (this procedure was performed once). Alveolar macrophages and other cells were removed by centrifugation at 500 g for 10 minutes. BALs (290 μl) were co-cultured in microtiter plates with 10 μl bacterial suspension containing 5-7×10^6 CFU of B. pertussis at 37° C. Supernatants were plated onto BG agar plates at different time points to evaluate the number of viable bacteria. The sensitivity of B. pertussis to synthetically derived pBD-1 and human beta-defensin 2 (hBD-2) was assayed by co-culturing appropriate concentrations of pBD-1 or hBD-2 in SS-medium (280 μl) with 5-7×10^6 CFU (10 μl) bacteria. Plates were incubated at 37° C. for 2, 6, 18 and 24 hours. The same procedures were followed to investigate the inhibitory effects of BAL, pBD-1 and hBD-2 against B. bronchiseptica in vitro."}, "Salmonella typhimurium": {"tested_on": "Salmonella typhimurium", "settings": "40 μg/ml; cited from earlier work"}, "[2]": {"tested_on": "Actinobacillus pleuropneumoniae", "experiment": "In vitro inhibitory activity against Actinobacillus pleuropneumoniae", "format": "cell-based", "settings": "FIG. 6A", "description": "as §1\n(§3) The inhibitory activity of pBD-1 on the Gram-negative bacteria Actinobacillus pleuropneumoniae, Bordetella bronchiseptica, Streptococcus suis and E. coli was also examined. FIGS. 6A-6B show the results on A. pleuropneumoniae, S. suis, B. bronchiseptica and B. pertussis. The results for E. coli are not shown."}, "E. coli": {"tested_on": "E. coli", "experiment": "In vitro inhibitory activity against E. coli", "format": "cell-based", "settings": "results not shown", "description": "as §1, §3"}, "Candida albicans": {"tested_on": "Candida albicans", "settings": "40 μg/ml; cited from earlier work"}, "Escherchia coli": {"tested_on": "Escherchia coli", "settings": "40 μg/ml; cited from earlier work"}, "Listeria monocytogenes": {"tested_on": "Listeria monocytogenes", "settings": "40 μg/ml; cited from earlier work"}, "B. bronchiseptica [3]": {"tested_on": "B. bronchiseptica", "experiment": "Transmission electron microscopy of B. bronchiseptica after pBD-1 treatment", "format": "cell-based", "settings": "80 μg/ml", "description": "To determine the potential mechanism of action of pBD-1, transmission electron microscopy (TEM) was employed to evaluate the effect of pBD-1 on the bacterial membrane of B. pertussis and B. […] and incubated for 60 minutes at 37° C. Bacteria were washed with PBS, fixed with an equal volume of 5% glutaraldehyde in 0.1 M sodium cacodylate buffer (pH 7.4), and centrifuged at 5000 g for 5 minutes. Cells were resuspended in 1% agarose and pelleted. The bacterial pellets were stored in the fixative (2.5% glutaraldehyde) at 4° C. for 2 hours. The samples were dehydrated and en bloc stained with uranyl acetate in a series of ethanol concentrations and then embedded in Epon/Araldite. Thin sections were cut using an ultramicrotome with a diamond knife, mounted on specimens grids and stained with uranyl acetate and lead citrate before being examined on a transmission electron microscope (Philips 410LS) operating at 80 kV and at magnification ranging from 24000-55000×."}, "B. pertussis [4]": {"tested_on": "B. pertussis", "experiment": "In vivo antimicrobial activity: pBD-1 delivered into lungs of newborn piglets, challenge with B. pertussis", "description": "Pregnant Landrace sows were purchased from the Saskatoon Prairie Swine Centre, University of Saskatchewan. Sows were induced to farrow by intramuscular (i.m.) injection of prostaglandin (Planate) (Schering, Quebec, Canada) at day 113 of gestation. Piglets were born at day 114-115 of gestation. Nursing piglets were kept within the same room, but in separated pens and monitored very closely. The piglets were challenged at 3-5 days of age. All experiments were conducted in accordance with the ethical guidelines of the University of Saskatchewan and the Canadian Council for Animal Care (CCAC).\nNewborn piglets were anaesthetized with isoflurane and intubated using a laryngoscope. Infection was initiated by delivering 5×10^9 CFU of B. pertussis strain Tohama I intrapulmonarily (craniodorsal of the bifurcation) through a MICRO-RENATHANE tube (0.95) (Braintree Scientific Inc., Braintree, Mass., USA), which was inserted through an endotracheal tube (3 mm) (Jorgensen Laboratories Inc. Loveland, Colo., USA). The bottom-end of the MICRO-RENATHANE tube was sealed and minute holes were made for the equal distribution of bacteria. Piglets were monitored twice daily for clinical symptoms including fever and respiratory symptoms such as nasal discharge, non paroxysmal cough and breathing difficulties. Piglets were euthanized by i.p. injection of 5 ml of Euthanyl (Sodium barbiturate; Bimeda-MTC, Ont, Canada) at different time points over a 10 day period post challenge. The thoracic and the abdominal cavities and the lungs were examined for any lesions and abnormalities such as pleuritis or local collections of blood and fluids in the thorax were noted.\nThe antimicrobial activity of pBD-1 was tested in vivo by delivery of pBD-1 into the lungs of newborn piglets prior to challenge with B. pertussis. Pregnant sows, Landrace, were purchased from Saskatoon Prairie Swine Centre, University of Saskatchewan. Sows were farrowed out by i.m. injection of prostaglandin (Planate). Three to four day old colostrum-fed piglets were anaesthetized with isoflurane. 500 μg of pBD-1 dissolved in 1.5 ml PBS was delivered to the lung using a tube placed through the trachea in front of the bifurcation which marks the beginning of the lung (craniodorsal of bifurcation). A volume of 1.5 ml was delivered. Following the delivery of the pBD-1, all piglets were challenged with 5×10^9 cfu bacteria (n=10) by the same procedure. Control animals received saline instead of pBD-1 and were subsequently challenged. Piglets were kept with their sows within the same room in separated pens. Piglets were monitored twice a day.\nIn addition, the number of bacteria in BAL fluid and lung lesions was examined over a 10 day period. The BAL fluid was obtained by filling the lungs with 15 ml of SS-medium and withdrawing as much fluid as possible. To quantify the presence of B. pertussis in the BAL, fluid samples were centrifuged to remove debris and host cells; supernatant and dilutions thereof were plated onto BG plates and incubated at 37° C. for up to a week. To determine the number of bacteria within tissues, lesions were excised, weighed, homogenized and plated onto BG agar plates."}, "B. pertussis [5]": {"tested_on": "B. pertussis", "experiment": "In vitro bactericidal activity against B. pertussis in SS medium, viable counts (CFU) on BG agar", "format": "cell-based, B. pertussis strain Tohama I", "description": "The B. pertussis strain used in these experiments was Tohama I. Bacterial suspensions were stored at −70° C. in casamino acid plus 10% glycerol. Organisms were initially grown on the surface of Bordet-Gengou (BG) agar containing 15% (vol/vol) defibrinated sheep blood and 40 μg/ml of Cephalexin at 37° C. for 48 hrs. The bacterial cells were harvested and washed in phosphate-buffered saline (PBS, pH 7.2) by centrifugation at 2500 g for 10 min. The pellets were resuspended in saline and adjusted to a specified bacterial titer by determining the optical density at 600 nm using a spectrophotometer; The corresponding viable counts of these suspensions were measured by plating out serial dilutions of the bacterial suspension onto BG-agar and incubating at 37° C. for 4-5 days.\nTo examine the bactericidal effect of defensin against B. pertussis, 10 μl of bacterial suspension (OD600 nm of 0.2) was added to 200 μl of Stainer and Scholte (SS) broth medium with or without chemically synthesized defensin at different concentrations in a 96 well plate and incubated at 37° C. for up to 30 hours. At the end of each incubation period (6 hrs, 18 hrs, 24 hrs, 30 hrs), the culture medium was immediately removed for quantification of viable bacteria. The culture medium with or without defensin was plated onto BG agar plates and incubated at 37° C. for up to 4 days after which time the number of colonies were counted. The number of surviving bacteria was estimated by colony-forming units (CFU). The results were confirmed by three independent experiments compared with results from control bacterial culture (no peptide).\n20, 40 and 80 μg of pBD-1 was added to bacterial culture and incubated at 37° C. Aliquots were removed at 6, 18 and 30 hr post incubation and incubated for 4 days on BG plates at 37° C.\nas §2"}, "Streptococcus suis": {"tested_on": "Streptococcus suis", "experiment": "In vitro inhibitory activity against Streptococcus suis", "format": "cell-based", "settings": "FIG. 6B", "excerpt": "as §3"}, "B. pertussis [6]": {"tested_on": "B. pertussis", "experiment": "Transmission electron microscopy of B. pertussis after pBD-1 treatment", "format": "cell-based", "settings": "20 and 40 μg/ml; 60 minutes at 37° C.", "description": "To determine the potential mechanism of action of pBD-1, transmission electron microscopy (TEM) was employed to evaluate the effect of pBD-1 on the bacterial membrane of B. pertussis and B. bronchiseptica following treatment with pBD-1. pBD-1 was added at a final concentration of 20 μg/ml or 40 μg/ml to 5-9×10^9 CFU bacteria and incubated for 60 minutes at 37° C. Bacteria were washed with PBS, fixed with an equal volume of 5% glutaraldehyde in 0.1 M sodium cacodylate buffer (pH 7.4), and centrifuged at 5000 g for 5 minutes. Cells were resuspended in 1% agarose and pelleted. The bacterial pellets were stored in the fixative (2.5% glutaraldehyde) at 4° C. for 2 hours. The samples were dehydrated and en bloc stained with uranyl acetate in a series of ethanol concentrations and then embedded in Epon/Araldite. Thin sections were cut using an ultramicrotome with a diamond knife, mounted on specimens grids and stained with uranyl acetate and lead citrate before being examined on a transmission electron microscope (Philips 410LS) operating at 80 kV and at magnification ranging from 24000-55000×."}, "B. pertussis isolates": {"tested_on": "B. pertussis isolates", "settings": "cited from earlier work"}}, "note": "Bridge positions count the residues as written; N and C are the ends. Ends that are not written are not given here.", "data": [{"substance": "H-KNIGNSVSCLRNKGVCMPGKCAPKMKQIGTCGMPQVKCCKRK-NH2 (disulfide 9-38, 16-31, 21-39) [pBD-1]", "values": [{"measurement": "growth of B. bronchiseptica", "setting": "B. bronchiseptica [1]; 40 μg/ml, 6 and 24 hours (FIG. 7B)", "result": "unaffected"}, {"measurement": "susceptibility of B. bronchiseptica", "setting": "B. bronchiseptica [1]; 160 μg/ml, up to 48 hours incubation", "result": "resistant"}, {"measurement": "inhibitory activity", "setting": "B. bronchiseptica [1]; FIG. 6C", "result": "Inhibitory activity was observed against all of these organisms except B. bronchiseptica"}, {"measurement": "salt-dependent bactericidal activity", "setting": "Salmonella typhimurium", "result": "has been demonstrated"}, {"measurement": "inhibitory activity", "setting": "[2]", "result": "Inhibitory activity was observed"}, {"measurement": "inhibitory activity", "setting": "E. coli", "result": "Inhibitory activity was observed"}, {"measurement": "salt-dependent bactericidal activity", "setting": "Candida albicans", "result": "has been demonstrated"}, {"measurement": "salt-dependent bactericidal activity", "setting": "Escherchia coli", "result": "has been demonstrated"}, {"measurement": "salt-dependent bactericidal activity", "setting": "Listeria monocytogenes", "result": "has been demonstrated"}, {"measurement": "ultrastructural effect on bacteria", "setting": "B. bronchiseptica [3]", "result": "did not result in major ultrastructural abnormalities or discrete holes"}, {"measurement": "protection of infected piglets", "setting": "B. pertussis [4]; 500 μg into the lung at time of challenge, 5×10^9 CFU B. pertussis", "result": "complete protection"}, {"measurement": "clinical symptoms (fever, respiratory symptoms)", "setting": "B. pertussis [4]; 500 μg into the lung, all treated animals, all controls had fever and respiratory symptoms", "result": "no clinical symptoms"}, {"measurement": "clinical symptoms and pathological alterations", "setting": "B. pertussis [4]; 500 μg, at 2, 4, 7 and 10 days post infection", "result": "total absence"}, {"measurement": "lesions in the histopathology of lung tissues", "setting": "B. pertussis [4]; 500 μg, compared with challenged control piglets", "result": "either minor or no lesions"}, {"measurement": "numbers of bacteria in homogenized lung tissues", "setting": "B. pertussis [4]; 500 μg, days 2, 4, 7 and 10 post infection, p<0.005 (FIG. 10B)", "result": "significantly lower numbers of bacteria"}, {"measurement": "numbers of isolated bacteria in BALs", "setting": "B. pertussis [4]; 500 μg, days 2, 4 and 7 post infection, p<0.0001 (FIG. 10A)", "result": "significantly reduced"}, {"measurement": "bactericidal activity in diluted SS medium", "setting": "B. pertussis [5]; 10 μg/ml, 1/10 diluted SS medium in PBS, shorter period of time (FIG. 5B)", "result": "even stronger bactericidal activity"}, {"measurement": "growth inhibition in comparison with control medium", "setting": "B. pertussis [5]; 20 μg/ml, 6 hours, repeated assay (FIG. 5A)", "result": "at least 2 logs"}, {"measurement": "inhibition of B. pertussis growth", "setting": "B. pertussis [5]; 40 μg/ml, 18 hours of incubation (FIG. 4)", "result": "complete inhibition"}, {"measurement": "neutralization of 5-8×10^6 CFU of B. pertussis", "setting": "B. pertussis [5]; 80 μg/ml, 18 hours, repeated assay (FIG. 5A)", "result": "completely neutralized"}, {"measurement": "effect of serum on antimicrobial activity", "setting": "B. pertussis [5]; 10-50% rabbit serum added to the medium", "result": "did not inhibit"}, {"measurement": "inhibitory effect against B. pertussis, dependence", "setting": "B. pertussis [5]; 20, 40, 80 μg, 6, 18, 30 hr", "result": "dose and time dependent"}, {"measurement": "antimicrobial activity against B. pertussis on addition of salt", "setting": "B. pertussis [5]; addition of salt", "result": "significantly reduced"}, {"measurement": "reduction in bacterial growth compared to untreated control wells", "setting": "B. pertussis [5]; after 6 hours of incubation, 20-80 μg pBD-1", "result": "about 2 logs"}, {"measurement": "reduction of bacterial growth", "setting": "B. pertussis [5]; after 18 hours, depending on the dose used", "result": "more than 100,000 fold"}, {"measurement": "reduction of the bacterial growth", "setting": "B. pertussis [5]; after 30 hours", "result": "1,000,000 fold"}, {"measurement": "inhibitory activity", "setting": "Streptococcus suis", "result": "Inhibitory activity was observed"}, {"measurement": "morphological effect on the bacterial cell surface", "setting": "B. pertussis [6]", "result": "substantial morphological damage"}]}, {"substance": "human β-defensin-1: human β-defensin-1, cited from Baneman et al. as without effect on B. pertussis (DHYNCVSSGGQCLYSACPIFTKIQGTCYRGKAKCCK; ends and bridges not checked; cysteine pairing not given here; UniProt P60022 33-68, looked up)", "values": [{"measurement": "effect on B. pertussis isolates", "setting": "B. pertussis isolates", "result": "no effect"}]}]}
